Assay results as given in the supplement of paper PMC10307832.

What was measured:
Assay in all cases: relative viability (nuclei count vs DMSO), 5 days (fraction); higher = more cells survive
[1] = compound: CCC1=CN=CN=C1N2CCN(CC2)CC3=NC4=C(N3)C=C(C=C4)C(F)(F)F + CC(=O)Nc1cccc(-n2c(=O)n(C3CC3)c(=O)c3c(Nc4ccc(I)cc4F)n(C)c(=O)c(C)c32)c1 [Trametinib] (partner 0.02 µM)
In short: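 Lung cancer cell lines in 1536-well plates got either a single drug or a fixed anchor-drug dose together with five library-drug doses (not always all listed) in √10 steps, by pin tool, on the day after seeding. Nuclei were counted after 5 days, and relative viability is the treated-to-vehicle ratio of nuclei counts. Values are medians of duplicate plates.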

[2] = compound: CCC1=CN=CN=C1N2CCN(CC2)CC3=NC4=C(N3)C=C(C=C4)C(F)(F)F
In short: (§1)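 Five library-drug doses, separated by factors of √10, were pinned into 1536-well plates holding lung cancer cell lines after an overnight stay at 37 °C. Cells were fixed, permeabilised and Hoechst-stained in one step after 5 days without medium change, then imaged at 4×. Viability compares treated-well with vehicle-well nuclei, counted in MetaXpress, as a median across plates. Passing plates had control CV below 25% and at least one doubling.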

Mirin = compound: N=C1NC(=O)/C(=C/c2ccc(O)cc2)S1 [Mirin]
In short: as §1

[3] = compound: CCn1c(-c2nonc2N)nc2cnc(Oc3cccc(NC(=O)c4ccc(OCCN5CCOCC5)cc4)c3)cc21
In short: as §1

Cell Line	relative viability ([1]; first compound 0.04 µM)	relative viability ([1]; first compound 0.1265 µM)	relative viability ([1]; first compound 0.4 µM)	relative viability ([1]; first compound 1.265 µM)	relative viability ([1]; first compound 4 µM)	relative viability ([2]; 0.04 µM)	relative viability ([2]; 0.1265 µM)	relative viability ([2]; 0.4 µM)	relative viability ([2]; 1.265 µM)	relative viability ([2]; 4 µM)	relative viability (Mirin; 0.25 µM)	relative viability (Mirin; 0.7906 µM)	relative viability (Mirin; 2.5 µM)	relative viability (Mirin; 7.906 µM)	relative viability (Mirin; 25 µM)	relative viability ([3]; 0.04 µM)	relative viability ([3]; 0.1265 µM)	relative viability ([3]; 0.4 µM)	relative viability ([3]; 1.265 µM)	relative viability ([3]; 4 µM)
PC-14	0.828	0.808	0.714	0.71	0.779	0.97	0.919	0.99	0.979	1	0.975	0.906	1.03	1.05	1.13	1.08	0.834	0.809	0.729	0.653
NCI-H1666	0.892	0.825	0.877	0.879	0.792	0.99	0.929	0.952	0.962	0.944	1.05	1.04	0.987	0.889	0.892	1.13	1.15	1.04	0.607	0.628
NCI-H1944	0.519	0.406	0.4	0.324	0.352	1.11	0.929	0.847	0.652	0.852	0.979	0.952	0.971	0.898	0.625	0.977	0.946	0.577	0.576	0.336
NCI-H2023	0.533	0.53	0.527	0.513	0.453	1.03	0.914	0.917	0.858	1.03	1.01	0.937	0.958	0.975	0.86	1.13	0.964	0.743	0.508	0.419
NCI-H1755	0.828	0.769	0.759	0.68	0.799	1.05	0.937	0.978	0.872	1	1.03	1.01	1.01	1.02	1.13	1.02	0.913	0.71	0.627	0.577
NCI-H2347	0.295	0.333	0.313	0.249	0.293	1.05	0.986	1.04	0.827	1.09	0.962	0.972	1.08	0.957	1.03	1.1	1.02	0.878	0.504	0.546
201T	0.725	0.73	0.747	0.711	0.694	0.98	0.956	0.97	0.869	1.05	1.03	1.03	0.974	1.05	1.02	1.06	0.961	0.811	0.778	0.834
NCI-H1734	0.581	0.668	0.604	0.65	0.709	0.88	0.98	0.943	0.814	1.03	0.978	0.761	0.929	0.895	0.884	0.961	0.878	0.545	0.418	0.362
NCI-H596	0.821	0.804	0.724	0.788	0.647	1.01	0.935	0.882	0.736	1.08	0.996	1	1.02	1.02	0.973	1.01	0.869	0.799	0.865	0.83
NCI-H1650	0.499	0.707	0.573	0.499	0.672	0.82	0.824	0.84	0.703	0.981	0.963	1.08	1	0.984	0.61	1.21	0.894	0.858	0.746	0.812
NCI-H1355	0.435	0.395	0.426	0.331	0.451	1.01	0.935	0.918	0.931	1.04	0.997	0.982	0.949	0.942	1.08	1.04	1	0.776	0.632	0.487
NCI-H1915	0.286	0.337	0.293	0.248	0.287	0.992	0.976	0.926	0.809	1.05	1		0.984	0.951	1.03	1.11	1.01	0.811	0.331	0.404
BEN	1.09	1.18	0.975	0.742	0.709	0.836	0.929	0.928	0.594	0.675	0.857	1.01	1.2	0.812	0.549	0.92	0.816	0.514	0.362	0.452
NCI-H322M	0.483	0.611	0.537	0.458	0.62	1.05	0.95	0.935	0.729	1.01	0.99	0.867	0.967	1.19	0.944	1.22	1.17	0.882	0.656	0.72
SK-MES-1	0.569	0.503	0.582	0.516	0.563	1.04	0.975	0.983	1	0.985	1.02	1.1	1.05	1.12	1.28	1.1	0.915	0.82	0.709	0.746
HOP-62	0.424	0.378	0.373	0.346	0.355	1.03	0.946	0.95	0.936	1.06	0.979	1.07	0.983	0.856	1.1	1.13	1.02	0.899	0.549	0.537
